Reference: paper PMC11016601, “Exploring the bioaccessibility and intestinal absorption of major classes of pure phenolic compounds using in vitro simulated gastrointestinal digestion” (Heliyon, 2024)
“And” between values parts separate entries of the source, which are not always exact repeats. Identical values can stand only once.

test: In vitro simulated gastrointestinal digestion (SGD, INFOGEST 2.0): concentration and bioaccessibility by UHPLC-DAD-MSn; conditions: 2 min
Experimental: Preliminary solubility tests in different solvents, namely water, sodium phosphate buffer (26.8 mM, pH 6.1), ethanol, and also a mixture of ethanol with both water and sodium phosphate buffer, were carried out for each PC (data not shown), to prevent erroneous data arising from compounds precipitation. Ethanol percentages used in these preliminary solubility tests were 10, 15, and 20% (v/v).
Each PC solubilized in ethanol:water (15% v/v) was then submitted to an in vitro SGD (INFOGEST 2.0), according to a standardized protocol (Fig. 2). In order to determine whether the interaction between the compounds and enzymes led to an underestimation of their content, each PC solution was submitted to the same digestion procedure, replacing the enzyme solutions with water, which were designed as controls, henceforth this will be the term used. Each sample and control were submitted to three independent in vitro digestion simulations, and after each digestion phase, a sample/control was collected and further analyzed and quantified by UHPLC-DAD-MSn.
(§1) Mouth digestion of each PC solution (1 mL) was diluted in 0.8 mL of simulated salivary fluid (SSF) and α-amylase (75 U mL-1). Then, the mixture was incubated for 2 min at 37 °C under agitation (200 rpm). In order to start gastric digestion, pH was adjusted to 3.0 using 1 M aqueous HCl and then, a pepsin solution (2000 U mL-1) and simulated gastric fluid (SGF) were added. Subsequently, the mixture was incubated for 2h, at 37 °C and 130 rpm orbital agitation for the stomach digestion. Finally, the small intestine digestion simulation was performed after pH adjustment to 7.0 using 1 M aqueous […] and the addition of pancreatin (100 U mL-1), bile salts solution (10 mM) and simulated intestinal fluid (SIF), during 2 h, at 37 °C with 45 rpm orbital agitation. Natural small intestine absorption was also simulated, by placing the remaining sample in a dialysis membrane, and immersed in distilled water overnight at room temperature.
At each sampling point, an aliquot (0.5 mL) from each of the three replicates was collected. The enzymatic activity was stopped immediately by adding pure methanol to each aliquot (1:1, v/v) to promote enzyme precipitation and subsequently centrifuged at 10 000 g and 4 °C for 5 min. The supernatants were filtered with a 0.2 μm nylon filter. To determine the concentration of each sample or control, it was considered the following dilution factor – 1:2, 1:4 and 1:8 for oral, gastric and intestinal digestion phase, respectively.
The bioaccessibility percentage (B%) of each PC was calculated using equation (1):(1) B(%)=[DS]/[IS]×100 where IS is the initial concentration of PCs in ethanol:water (15% v/v) solutions, DS is the concentration of each collected sample or control (without enzymes).
(§2) The values of B% and IA% were the average of the three replicates performed, with the calculated standard deviation.
PCs were analyzed in a UHPLC system equipped with a variable loop Accela autosampler (set at 16 °C), an Accela 600 LC pump, and an Accela 80 Hz photo diode array detector (DAD) (Thermo Fisher Scientific, San Jose, CA, USA). Each sample was prepared in methanol:water (1:1, v/v) and filtered through a 0.2 μm nylon syringe filter. […] The mobile phase was composed of acetonitrile (A) and water:acetonitrile (99:1, v/v) (B), both with 0.1 % of formic acid. The gradient elution was performed as follows: 0–1min: 99% B; 1–17 min: 99-73% B, 17–20 min: 73-0% B, 20–25 min: 0–99% B, followed by re-equilibration of the column at 99% B for 4 min.

| SMILES | Bioaccessibility (%), oral phase (O) |
| --- | --- |
| O=C(O[C@@H]1Cc2c(O)cc(O)cc2O[C@@H]1c1cc(O)c(O)c(O)c1)c1cc(O)c(O)c(O)c1 [EGCG, epigallocatechin-3-O-gallate] | 38.16 ± 12.23^ b % |

same assay, conditions: controls (without enzymes); gastric phase

| SMILES | Bioaccessibility (%), gastric phase (G) | Concentration, gastric phase (G) [µg/mL] |
| --- | --- | --- |
| O=C(O[C@@H]1Cc2c(O)cc(O)cc2O[C@@H]1c1cc(O)c(O)c(O)c1)c1cc(O)c(O)c(O)c1 [EGCG, epigallocatechin-3-O-gallate] | 61.53% and 61.53 ± 5.39 ^b % | 1272.99 ± 111.59 |

same assay, conditions: controls (without enzymes); initial solution

| SMILES | Concentration, initial solution (IS) [µg/mL] |
| --- | --- |
| O=C(O[C@@H]1Cc2c(O)cc(O)cc2O[C@@H]1c1cc(O)c(O)c(O)c1)c1cc(O)c(O)c(O)c1 [EGCG, epigallocatechin-3-O-gallate] | 2068.93 |

same assay, conditions: controls (without enzymes); initial solution, reference

| SMILES | Bioaccessibility (%), initial solution (IS) |
| --- | --- |
| O=C(O[C@@H]1Cc2c(O)cc(O)cc2O[C@@H]1c1cc(O)c(O)c(O)c1)c1cc(O)c(O)c(O)c1 [EGCG, epigallocatechin-3-O-gallate] | 100^ a % |

same assay, conditions: controls (without enzymes); intestinal phase

| SMILES | Bioaccessibility (%), intestinal phase (I) | Concentration, intestinal phase (I) [µg/mL] |
| --- | --- | --- |
| O=C(O[C@@H]1Cc2c(O)cc(O)cc2O[C@@H]1c1cc(O)c(O)c(O)c1)c1cc(O)c(O)c(O)c1 [EGCG, epigallocatechin-3-O-gallate] | 5.03% and 5.03 ± 0.81 ^d % | 104.15 ± 16.86 |

same assay, conditions: controls (without enzymes); oral phase

| SMILES | Bioaccessibility (%), oral phase (O) | Concentration, oral phase (O) [µg/mL] |
| --- | --- | --- |
| O=C(O[C@@H]1Cc2c(O)cc(O)cc2O[C@@H]1c1cc(O)c(O)c(O)c1)c1cc(O)c(O)c(O)c1 [EGCG, epigallocatechin-3-O-gallate] | 34.13% and 34.13 ± 1.91 ^c % | 706.03 ± 39.46 |

same assay, conditions: samples with enzymes; after gastric digestion pH 3.0

| SMILES | Concentration, gastric phase (G) [µg/mL] |
| --- | --- |
| O=C(O[C@@H]1Cc2c(O)cc(O)cc2O[C@@H]1c1cc(O)c(O)c(O)c1)c1cc(O)c(O)c(O)c1 [EGCG, epigallocatechin-3-O-gallate] | 1473.22 ± 65.28 |

same assay, conditions: samples with enzymes; after intestinal digestion pH 7.0

| SMILES | Concentration, intestinal phase (I) [µg/mL] |
| --- | --- |
| O=C(O[C@@H]1Cc2c(O)cc(O)cc2O[C@@H]1c1cc(O)c(O)c(O)c1)c1cc(O)c(O)c(O)c1 [EGCG, epigallocatechin-3-O-gallate] | 312.22 ± 46.76 |

same assay, conditions: samples with enzymes; after oral digestion

| SMILES | Concentration, oral phase (O) [µg/mL] |
| --- | --- |
| O=C(O[C@@H]1Cc2c(O)cc(O)cc2O[C@@H]1c1cc(O)c(O)c(O)c1)c1cc(O)c(O)c(O)c1 [EGCG, epigallocatechin-3-O-gallate] | 789.50 ± 253.03 |

same assay, conditions: samples with enzymes; gastric phase

| SMILES | Bioaccessibility (%), gastric phase (G) |
| --- | --- |
| O=C(O[C@@H]1Cc2c(O)cc(O)cc2O[C@@H]1c1cc(O)c(O)c(O)c1)c1cc(O)c(O)c(O)c1 [EGCG, epigallocatechin-3-O-gallate] | 71.21% and 71.21 ± 3.16 ^a % |

same assay, conditions: samples with enzymes; intestinal phase

| SMILES | Bioaccessibility (%), intestinal phase (I) |
| --- | --- |
| O=C(O[C@@H]1Cc2c(O)cc(O)cc2O[C@@H]1c1cc(O)c(O)c(O)c1)c1cc(O)c(O)c(O)c1 [EGCG, epigallocatechin-3-O-gallate] | 15.09% and 15.09 ± 2.26 ^b % |

same assay, conditions: samples with enzymes; oral phase

| SMILES | Bioaccessibility (%), oral phase (O) [%] |
| --- | --- |
| O=C(O[C@@H]1Cc2c(O)cc(O)cc2O[C@@H]1c1cc(O)c(O)c(O)c1)c1cc(O)c(O)c(O)c1 [EGCG, epigallocatechin-3-O-gallate] | 38.16 |

same assay, conditions: samples; initial ethanol:water (15% v/v) solution

| SMILES | Concentration, initial solution (IS) [µg/mL] |
| --- | --- |
| O=C(O[C@@H]1Cc2c(O)cc(O)cc2O[C@@H]1c1cc(O)c(O)c(O)c1)c1cc(O)c(O)c(O)c1 [EGCG, epigallocatechin-3-O-gallate] | 2068.93 |

same assay, conditions: samples; initial solution, reference

| SMILES | Bioaccessibility (%), initial solution (IS) |
| --- | --- |
| O=C(O[C@@H]1Cc2c(O)cc(O)cc2O[C@@H]1c1cc(O)c(O)c(O)c1)c1cc(O)c(O)c(O)c1 [EGCG, epigallocatechin-3-O-gallate] | 100^ a % |

test: Simulation of intestinal absorption using a dialysis membrane (3 kDa) after in vitro SGD; conditions: not given
Excerpt: HPLC-grade methanol, water, and acetonitrile were supplied by Fisher Scientific Chemicals. The enzymes α-amylase (A1031), pepsin from porcine stomach mucosa (P7012), pancreatin from porcine pancreas (P7545), and bile salts (B863) were purchased from Sigma-Aldrich (Taufkirchen, Germany). The rabbit gastric extract (RGE15) with gastric lipase activity was purchased from Lipolytech (Marseille, France). The ethanol was purchased from Merck (Algés, Portugal). A dialysis membrane with a molecular pore size of 3 kDa was purchased from Spectra/Pro (Spectrum Lab, Breda, Netherlands).
as §1
Furthermore, to determine the intestinal absorption, the aliquots collected inside the dialysis membrane were analyzed. The concentration of these samples (from inside of the membrane) corresponds to the amount of each PC that has not passed through to the outside of the membrane.
as §2

| SMILES | Concentration, dialysis phase (D) | Intestinal absorption (IA%) |
| --- | --- | --- |
| O=C(O[C@@H]1Cc2c(O)cc(O)cc2O[C@@H]1c1cc(O)c(O)c(O)c1)c1cc(O)c(O)c(O)c1 [EGCG, epigallocatechin-3-O-gallate] | below the detection limit | very high |
